Read-outs that look alike come from different tables or passages of the source. Blank lines part the entries; values can stand above or below the compound they belong to.
How the values were obtained:
[1] = Pilot pharmacokinetic study of an oxybutynin gel formulation in healthy volunteers (Example 17); conditions: Treatment A (60 mg/day gel), 156 h, individual subjects
Procedure: Subjects were excluded on the basis of any preexisting condition or finding on the prestudy examination that would place them at risk during the study. Written informed consent was obtained from each subject before participating in any study-related procedures after discussion and explanation of the study.
Treatments were administered according to an open-label, multiple-dose, escalating dose titration pilot pharmacokinetic study and included a transdermal oxybutynin gel. Steady-state conditions were achieved by administering daily doses for 7 days. Subjects participated in 2 study periods during which the test medication (a transdermal gel) was applied once daily. 2 g of the gel (corresponding to a dose of 60 mg of oxybutynin) was applied daily during the first study period (Treatment A), then 1 g (corresponding to a dose of 30 mg of oxybutynin) during the second study period (Treatment B). A wash-out period of 7 days was observed between the two study periods. Both dosages were tested on same subjects. The design allows comparison between different dosages of the same formulation within the subject and removes inter-subject variability.
The main objective of this study was to assess the pharmacokinetic parameters of an oxybutynin gel formulation, administered in two different doses, administering the product in 8 healthy female volunteers.
The secondary objective of this study was to record safety parameters such as adverse events, skin tolerance, vital signs, e.g., blood pressure and heart rate.

[2] = Dose-ranging pharmacokinetic study of transdermal oxybutynin gel in healthy volunteers (Example 18); conditions: after 20 days (steady-state), mean ± SD, N = 16
Procedure: The study was an open-label, randomized, parallel, three-treatment, dose-ranging pharmacokinetic study. […] The subjects were aged 19 to 53 (mean 35) years.
The oxybutynin transdermal gel formulation contained 3% w/w of oxybutynin base in a hydroalcoholic non-occlusive matrix including the unique combination of permeation enhancers of the present invention. Three different doses of the gel were administered topically once a day during 20 consecutive days: treatment A consisted in a daily amount of 1.4 g applied gel, corresponding to 42 mg oxybutynin; treatment B consisted in a daily amount of 2.0 g applied gel, corresponding to 60 mg oxybutynin; and treatment C consisted in a daily amount of 2.8 g applied gel, corresponding to 84 mg oxybutynin.

[3] = Pharmacokinetic study of R/S OXY and DEO enantiomers, transdermal oxybutynin gel (Example 20); assay type: in vivo, human; conditions: single-dose topical 84 mg OXY gel, abdominal area, normalized to 84 mg, mean ± SD, N = 10
Procedure: Ten healthy volunteers (Asian Indians, 60% female) aged 18 to 35 (mean 29) years old were treated with 2.8 g of a formulation of the present invention containing 3% w/w of OXY base (84 mg OXY), administered topically as a single dose on the abdomen (700 cm^2).

[4] = clinical; conditions: both, human, in vivo, 84 mg, Tmax median
[5] = tested on: detrusor muscle; conditions: cited from earlier work
[6] = both, human, in vivo
[7] = female, human, in vivo

SMILES: CCNCC#CCOC(=O)C(O)(c1ccccc1)C1CCCCC1 (centres unmarked) [N-desethyloxybutynin]
N-desethyloxybutynin concentration [1]: 11.970 ng/L
Cav ([2]; Treatment A: 42 mg oxybutynin daily): 3.0 ± 1.3 ng/mL
Cav ([2]; Treatment B: 60 mg oxybutynin daily): 4.0 ± 2.1 ng/mL
Cav ([2]; Treatment C: 84 mg oxybutynin daily): 7.0 ± 4.0 ng/mL

AUC0-120 [3]: 151.1 ± 56.0 ng·h/mL
Cmax [3]: 3.6 ng/mL
SMILES: CCN(CC)CC#CCOC(=O)[C@](O)(c1ccccc1)C1CCCCC1 [R-OXY]

AUC0-120 [3]: 246.0 ± 96.7 ng·h/mL
Cmax [3]: 5.8 ± 2.6 ng/mL
SMILES: CCN(CC)CC#CCOC(=O)[C@@](O)(c1ccccc1)C1CCCCC1 [S-OXY]

Tmax [4]: 24 h
time to reach plasmatic levels of about 1 to 4 ng/ml [6]: about 2 hours
time to reach plasmatic levels of about 2 to 4 ng/ml [6]: less than 4 hours
time to reach plasmatic levels of about 3 to about 4 ng/ml [6]: less than 6 hours
time up to which plasmatic levels of about 1 to 4 ng/ml are sustained [6]: at least 72 hours
time up to which plasmatic levels of about 2 to 4 ng/ml are sustained [6]: at least 48 hours
time up to which plasmatic levels of about 3 to about 4 ng/ml are sustained [6]: at least 36 hours
Treatment A/Treatment B Ratio - Oxybutynin [7]: 1.93
Treatment A/Treatment B Ratio - Oxybutynin ([7]; 0 h): 0
SMILES: CCN(CC)CC#CCOC(=O)C(O)(c1ccccc1)C1CCCCC1 (centres unmarked) [Oxybutynin]
antispasmodic activity relative to atropine [5]: four to ten times
anticholinergic activity relative to atropine ([5]; detrusor muscle, effect observed in rabbits): one-fifth

SMILES: CCNCC#CCOC(=O)[C@](O)(c1ccccc1)C1CCCCC1 [R-DEX]
AUC0-120 [3]: 269.5 ± 132.8 ng·h/mL
Cmax [3]: 6.3 ng/mL

SMILES: CCNCC#CCOC(=O)[C@@](O)(c1ccccc1)C1CCCCC1 [S-DEX]
AUC0-120 [3]: 285.5 ± 152.9 ng·h/mL
Cmax [3]: 6.9 ± 3.8 ng/mL
